Assay results as given in article PMC4971072, “Chemically Homogenous Compounds with Antagonistic Properties at All α1-Adrenoceptor Subtypes but not β1-Adrenoceptor Attenuate Adrenaline-Induced Arrhythmia in Rats” (Frontiers in Pharmacology, 2016).
Where a name gives a salt, the structure may show the parent alone.

How the values were obtained:
[1] = tested on: adrenaline-induced arrhythmia in rats; experiment: Prophylactic antiarrhythmic activity in adrenaline-induced arrhythmia; format: in vivo, rat; settings: for ED50: Rattus norvegicus, read-out: ED50 (confidence limits)
Description: The studied compounds were administered i.p. 45 min before the injection of adrenaline, calcium chloride, or barium chloride. The electrocardiogram (ECG) was recorded during the first 2 min as well as in the 5th, 10th, and 15th min after the arrhythmogen injection. […]

[2] = tested on: lipid peroxidation in rat brain homogenate; experiment: Lipid peroxidation in rat brain homogenate (TBARS), antioxidant effect; format: biochemical; settings: 10^−3 M; for % reduction of absorbance (% antioxidant activity) / Absorbance: TBARs at 532 nm
Description: The rat brain homogenate containing 10 mg tissue/ml was prepared in 0.9% saline. The rates of membrane lipid peroxidation were measured by the formation of thiobarbituric acid reactive substances (TBARS). Rat brain homogenates (1 ml) were incubated at 37°C for 5 min with 10 μl of a tested compound or vehicle. Lipid peroxidation was initiated by the addition of 50 μl of 0.5 mM FeCl2 and 50 μl of 2.0 mM ascorbic acid. After 30 min of incubation, the reaction was stopped by adding 0.1 ml of 0.2% butylated hydroxytoluene (BHT). Thiobarbituric acid reagent was then added and the mixture was heated for 15 min in a boiling water bath.

α1B-adrenoceptors = target: T1, α1B-adrenoceptors (Mus musculus, UniProt P97717); experiment: Functional bioassay, isolated mouse spleen, noradrenaline contraction; format: biochemical; settings: noradrenaline as agonist; for Kb: read-out: pA2 ± S.E.M., α1B (converted)
T1 construct: The spleen was removed from male mice; from tissue; host or cells: isolated mouse spleen
T1 sequence (P97717 1-514): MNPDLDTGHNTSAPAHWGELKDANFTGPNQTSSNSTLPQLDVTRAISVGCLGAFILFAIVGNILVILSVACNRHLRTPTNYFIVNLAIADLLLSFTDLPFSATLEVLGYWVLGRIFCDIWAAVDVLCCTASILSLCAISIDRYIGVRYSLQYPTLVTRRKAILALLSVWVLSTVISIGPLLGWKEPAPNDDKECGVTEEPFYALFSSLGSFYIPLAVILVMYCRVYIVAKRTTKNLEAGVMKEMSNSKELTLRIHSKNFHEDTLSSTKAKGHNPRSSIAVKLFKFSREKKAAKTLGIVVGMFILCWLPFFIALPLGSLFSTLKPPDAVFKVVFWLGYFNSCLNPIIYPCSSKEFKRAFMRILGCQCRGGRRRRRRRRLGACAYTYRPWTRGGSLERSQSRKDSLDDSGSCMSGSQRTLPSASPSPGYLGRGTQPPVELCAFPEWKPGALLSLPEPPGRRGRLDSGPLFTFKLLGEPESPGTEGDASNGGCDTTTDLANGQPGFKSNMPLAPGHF
Description: The influence on α1B-adrenoceptors was evaluated using the isolated mouse spleen. The spleen was removed from male mice right after killing the anesthetized animal by cervical dislocation. […] The initial optimal tissues tension was set at 1.0 g. Through the 100 min of equilibration tissues were stimulated with noradrenaline (0.1−10.0 μM) three times with washing out until the contractile response become constant. Two cumulative concentration-response curves to noradrenaline, at an interval of 60 min, were established on each tissue both in the presence and absence of antagonist. The incubation with antagonists went on for 30 min. The experiments were carried out in the constant presence of propranolol (1 μM) to block β-adrenoceptors, and minimize the involvement of these adrenoceptors in the response to noradrenaline.
(§1) Data are means ± S.E.M. of at least 4 separate experiments. To establish Hill slopes for the agonist concentration–response curves and calculate EC50 values, curves were fitted to all the data by non-linear regression. The EC50 value in the presence and absence of antagonists was used to ascertain the concentration ratio (CR). Schild analysis was performed.

α1D-adrenoreceptors = target: T2, α1D-adrenoreceptors (Rattus norvegicus, UniProt P23944); experiment: Functional bioassay, isolated rat aorta, noradrenaline contraction; format: biochemical; parameters: had aorta removed, denuded of endothelium and incubated in the Krebs-Henseleit solution; from tissue; host or cells: isolated rat aorta rings; settings: noradrenaline as agonist; for Kb: read-out: pA2 ± S.E.M., α1D (converted)
T2 sequence (P23944 1-561): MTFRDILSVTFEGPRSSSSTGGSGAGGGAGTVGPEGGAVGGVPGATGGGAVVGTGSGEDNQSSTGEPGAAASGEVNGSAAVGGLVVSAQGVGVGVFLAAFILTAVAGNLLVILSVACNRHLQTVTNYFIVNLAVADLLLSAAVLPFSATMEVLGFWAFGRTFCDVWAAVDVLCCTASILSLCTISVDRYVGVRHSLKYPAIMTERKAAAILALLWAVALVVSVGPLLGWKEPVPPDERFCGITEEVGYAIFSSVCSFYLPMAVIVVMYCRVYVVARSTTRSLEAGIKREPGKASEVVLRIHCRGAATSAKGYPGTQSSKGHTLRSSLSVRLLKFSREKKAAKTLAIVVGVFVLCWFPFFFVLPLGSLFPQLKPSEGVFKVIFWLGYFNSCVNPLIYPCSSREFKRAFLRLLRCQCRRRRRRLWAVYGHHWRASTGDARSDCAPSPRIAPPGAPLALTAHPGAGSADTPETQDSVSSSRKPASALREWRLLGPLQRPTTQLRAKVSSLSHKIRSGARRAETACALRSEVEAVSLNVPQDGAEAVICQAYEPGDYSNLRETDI
Description: Finally, the influence on α1D-adrenoreceptors was investigated using the isolated rat aorta. […] The aorta rings were maintained at optimal tension of 2.0 g. During 3 h of equilibration tissues were stimulated with noradrenaline three times (0.3 μM). Two cumulative concentration-response curves to noradrenaline, at an interval of 60 min, were established on each tissue both in the presence and absence of antagonist. The incubation with antagonists went on for 30 min. The experiments were carried out in the constant presence of yohimbine (0.1 μM) and propranolol (1 μM) to block α2- and β-adrenoceptors, respectively.
as §1

α1-adrenoceptor = α1-adrenoceptor radioligand binding assay ([3H]-prazosin, rat cerebral cortex); settings: read-out: Adrenergic receptors Ki α1
Description: The α1- and β1-adrenoceptor radioligand binding assay was performed on rat cerebral cortex. […] The cell pellet was resuspended in the Tris–HCl buffer and centrifuged again. Radioligand binding assays were performed in plates (MultiScreen/Millipore). […] The incubation was terminated by rapid filtration through glass fiber filters (Whatman GF/C) using a vacuum manifold (Millipore). The filters were then washed twice with the assay buffer and placed in scintillation vials with a liquid scintillation cocktail. […] All the assays were made in duplicate and the inhibitory constants (Ki) were estimated.
LO–labeled ligand concentration, KD–dissociation constant of labeled ligand

[3] = tested on: adrenaline-induced arrhythmia in rats; experiment: Therapeutic antiarrhythmic activity in adrenaline-induced arrhythmia; format: in vivo, rat; settings: i.v. at ED84 at the peak of adrenaline-induced arrhythmia (20 μg/kg)
Description: The ECG was recorded constantly for 5 min as well as in the 10th and 15th min of the experiment.

[4] = dose 2.5 mg/kg i.p. 45 min before adrenaline 20 μg/kg i.v.
[5] = dose 5 mg/kg i.p. 45 min before adrenaline 20 μg/kg i.v.
[6] = dose 10 mg/kg i.p. 45 min before adrenaline 20 μg/kg i.v.
[7] = dose 0.1 mg/kg i.p. 45 min before adrenaline 20 μg/kg i.v.
[8] = dose 0.2 mg/kg i.p. 45 min before adrenaline 20 μg/kg i.v.
[9] = dose 0.3 mg/kg i.p. 45 min before adrenaline 20 μg/kg i.v.

Row | SMILES | ED50 [1] [mg/kg] | inhibition of lipid peroxidation (in words) [2] | % reduction of absorbance (% antioxidant activity) [2] [%] | Absorbance [2] | Schild slope ± S.E.M., α1B (α1B-adrenoceptors) | Kb (α1B-adrenoceptors) [nM] | Schild slope ± S.E.M., α1D (α1D-adrenoreceptors) | Kb (α1D-adrenoreceptors) [nM] | Ki (α1-adrenoceptor) [nM] | Bigeminy (%) [1, 7] [%] | Blocks (%) [1, 7] [%] | Bradycardia (%) [1, 7] [%] | Extrasystoles (%) [1, 7] [%] | Bigeminy (%) [1, 8] [%] | Blocks (%) [1, 8] [%] | Bradycardia (%) [1, 8] [%] | Extrasystoles (%) [1, 8] [%] | Blocks (%) [1, 9] [%] | Bradycardia (%) [1, 9] [%] | Extrasystoles (%) [1, 9] [%] | other results
1 | COc1ccccc1N1CCN(CCOCCOc2c(C)cccc2Cl)CC1.Cl [HBK-15, 1-[(2-chloro-6-methylphenoxy)ethoxyethyl]-4-(2-methoxyphenyl)piperazine hydrochloride] | 4.8 | inactive | 1.22 | 0.891 ± 0.008 | 0.96 ± 0.01 | 21.4 | 1.09 ± 0.09 | 1.26 |  |  |  |  |  |  |  |  |  |  |  |  | Bigeminy (%) [1, 4]: 33.3%; Blocks (%) [1, 4]: 66.7%; Bradycardia (%) [1, 4]: 66.7%; Extrasystoles (%) [1, 4]: 66.7%; Bigeminy (%) [1, 5]: 16.7%; Blocks (%) [1, 5]: 50.0%; Bradycardia (%) [1, 5]: 66.7%; Extrasystoles (%) [1, 5]: 50.0%; Bigeminy (%) [1, 6]: 16.7%; Blocks (%) [1, 6]: 33.3%; Bradycardia (%) [1, 6]: 50.0%; Extrasystoles (%) [1, 6]: 33.3%
2 | COc1ccccc1N1CCN(CCCOc2c(C)cc(C)cc2C)CC1 [HBK-18, 1N-[3-(2,4,6-trimethylphenoxy)propyl]-4N-(2-methoxyphenyl)piperazine hydrochloride] | 0.18 | inhibited lipid peroxidation | 13.41 | 0.781 ± 0.004 | 1.03 ± 0.18 | 4.47 | 1.01 ± 0.05 | 1.2 | 5.2 | 50.0 | 66.7 | 66.7 | 83.3 | 16.7 | 33.0 | 50.0 | 50.0 | 16.3 | 16.3 | 16.7 | therapeutic antiarrhythmic activity (premature ventricular contractions) [3]: restored normal heart rhythm
3 | COc1ccccc1N1CCN(CCOCCOc2c(C)cccc2C)CC1.Cl [HBK-14, 1-[(2,6-dimethylphenoxy)ethoxyethyl]-4-(2-methoxyphenyl)piperazine hydrochloride] | 3.88 | inactive | −4.10 | 0.939 ± 0.007 | 1.03 ± 0.03 | 20 | 1.09 ± 0.10 | 1.38 |  |  |  |  |  |  |  |  |  |  |  |  | Bigeminy (%) [1, 4]: 50.0%; Blocks (%) [1, 4]: 83.3%; Bradycardia (%) [1, 4]: 83.3%; Extrasystoles (%) [1, 4]: 100.0%; Bigeminy (%) [1, 5]: 33.3%; Blocks (%) [1, 5]: 33.3%; Bradycardia (%) [1, 5]: 50.0%; Extrasystoles (%) [1, 5]: 50.0%; Bigeminy (%) [1, 6]: 16.7%; Blocks (%) [1, 6]: 33.3%; Bradycardia (%) [1, 6]: 50.0%; Extrasystoles (%) [1, 6]: 16.7%
4 | COc1ccccc1N1CCN(CCCOc2cc(C)cc(C)c2C)CC1 [HBK-19, 1N-[3-(2,3,5-trimethylphenoxy)propyl]-4N-(2-methoxyphenyl)piperazine hydrochloride] | 0.21 | inhibited lipid peroxidation | 22.62 | 0.698 ± 0.007 | 1.06 ± 0.05 | 8.51 | 1.03 ± 0.09 | 4.9 | 22.7 | 33.3 | 50.0 | 66.7 | 66.7 | 16.7 | 33.3 | 33.3 | 50.0 | 16.7 | 16.7 | 16.7 | therapeutic antiarrhythmic activity (premature ventricular contractions) [3]: restored normal heart rhythm
5 | COc1ccccc1N1CCN(CCCOc2cc(C)ccc2Cl)CC1 [HBK-16, 1N-[3-(2-chloro-5-methylphenoxy)propyl]-4N-(2-methoxyphenyl)piperazine hydrochloride] | 0.2 | inhibited lipid peroxidation | 16.63 | 0.752 ± 0.007 | 1.03 ± 0.12 | 6.17 | 1.11 ± 0.12 | 0.724 | 5 | 33.3 | 50.0 | 66.7 | 83.3 | 16.7 | 33.3 | 50.0 | 33.3 | 16.7 | 33.3 | 16.7 | therapeutic antiarrhythmic activity (premature ventricular contractions) [3]: restored normal heart rhythm
